{
  "source": "patent US20250213597A1",
  "about": "“AGENT FOR INDUCING PROLIFERATION OR DIFFERENTIATION OF CHONDROCYTE” (TOHOKU UNIVERSITY, priority 2022, published 2025)",
  "system": "ATDC5 cells",
  "assay": "Proliferation test of ATDC5 cells",
  "type": "cell-based",
  "method": "ATDC5 cells were cultured at a cell density of 5×10^5 cells/35 mm dish. As the culture solution, DMEM-Ham's F12 medium containing 5% FBS and 1% Pen/Strep was used. Adjustment was conducted to final concentrations of MPMBP of 10 μM (M10) and 100 μM (M100), clodronate of 10 μM (C10) and 100 μM (C100), zoledronate of 10 μM (Z10) and 100 μM (Z100) and a control (Vehicle), and the cells were cultured under the conditions of 5% CO2 at 37° C. The medium was changed every three days.",
  "data": [
    {"smiles": "O=P(O)(O)C(Cl)(Cl)P(=O)(O)O", "note": "[clodronate]", "values": [
      {"measurement": "number of cells", "setting": "third day of culture, 10 μM", "result": "increased"},
      {"measurement": "number of cells", "setting": "third day of culture, 100 μM", "result": "increased"}
    ]},
    {"smiles": "O=P(O)(O)C(O)(Cn1ccnc1)P(=O)(O)O", "note": "[zoledronate]", "values": [
      {"measurement": "number of cells", "setting": "sixth day of culture, 10 μM", "result": "decreased significantly"},
      {"measurement": "number of cells", "setting": "sixth day of culture, 100 μM", "result": "decreased significantly"},
      {"measurement": "number of cells", "setting": "third day of culture, 10 μM", "result": "decreased"},
      {"measurement": "number of cells", "setting": "third day of culture, 100 μM", "result": "decreased"}
    ]}
  ]
}
